Laboratory results: US20050112128A1, “Inhibition of protein kinase c-mu (PKD) as a treatment for cardiac hypertrophy and heart failure” (Myogen, Inc. and Board of Regents, The University of Texas …, priority 2003, published 2005)
Entries after “also recorded” stand apart in the source; their conditions may differ. Where no end group is shown, it is not given here.

Tested on: nuclear export of HDAC5 in COS cells
Assay: GFP-HDAC5 nuclear export in transfected COS cells (fluorescence microscopy)
Type: cell-based
Conditions: COS cells transfected with GFP-HDAC5; 60 min after addition of compounds
Experimental: FIGS. 1A-D—PKC-dependent nuclear export of HDAC5. FIG. 1A. COS cells were cultured on 6-well dishes, transfected with a GFP-HDAC5 expression vector (1 μg) and stimulated with the indicated compounds, as described in Materials and Methods. Sixty minutes after addition of compounds, GFP-HDAC5 distribution was determined by fluorescence microscopy. […] FIG. 1B. COS cells were transfected with expression vectors encoding FLAG-tagged versions of either HDAC5 or an HDAC5 mutant harboring alanines in place of serines 259 and 498 (HDAC5 S259/498A) (1 μg each). Cells were stimulated with PMA for 60 min and HDAC5 distribution was determined by indirect immunofluorescence with anti-FLAG primary antibody and fluorecein-conjugated secondary antibody. HDAC5 259/498A is refractory to PMA stimulation. FIG. 1C. COS cells transfected with GFPHDAC5 encoding expression vector (1 μg) and stimulated with PMA for the indicated times. FIG. 1D. COS cells were transiently transfected with expression vectors encoding FLAG-tagged versions of HDAC5 or HDAC5 S259/498A (1 μg each). Cells were pretreated with the PKC inhibitor bisindolylmaleimide (Bis I; 10 μM) for 30 minutes and stimulated with PMA for 30 min, as indicated. Association of FLAG-HDAC5 with endogenous 14-3-3 was detected by sequential immunoprecipitation and immunoblotting.
Cell culture and transfection assays. COS cells were maintained in DMEM with FBS (10%), L-glutamine (2 mM), and penicillin-streptomycin. Transfection of COS cells was performed with Fugene 6 (Roche Molecular Biochemicals) according to manufacturer's instructions. For HDAC localization experiments, cells were treated 16-24 hours after transfection with PMA (100 nM), ionomycin […], 8-Br-cAMP (1 mM), pCPT-GMP (1 mM), or anisomycin (1 mM). Where noted, specific protein kinase inhibitors were added 30 min prior to the addition of any chemical stimulus. GFP-HDAC5 was visualized with standard fluorescent microscopic techniques. For indirect immunofluorescence of FLAG-HDAC5, COS cells were seeded on glass coverslips, transfected, and treated as above. After specific treatment, cells were fixed with buffered formalin (10%) and stained in PBS containing BSA (3%) and Nonidet P-40 (0.1%). Flag M2 antibody (Sigma) was used at a concentration of 1:200. Secondary fluoresceine-conjugated antibody (Vector Laboratories) was also used at a concentration of 1:200. Staining of cardiomyocytes for sarcomeres and atrial natriuretic factor (ANF) was performed by indirect immunofluorescence detection as above with antibodies directed against sarcomeric α-actinin (Sigma) and ANF (Peninsula Laboratories), respectively.

| Compound | stimulation of nuclear export of GFP-HDAC5 |
| --- | --- |
| Nc1ncnc2c1nc(Br)n2[C@@H]1O[C@@H]2COP(=O)(O)O[C@H]2[C@H]1O [8-Br-cAMP] | only ionomycin and PMA stimulated nuclear export |
| COc1ccc(C[C@H]2NC[C@H](O)[C@H]2OC(C)=O)cc1 [anisomycin] | only ionomycin and PMA stimulated nuclear export |
| C[C@H](CCC(=O)O)C[C@H](C)C[C@H](C)C(=O)/C=C(\O)[C@H](C)C[C@H](C)C/C=C/[C@@H](C)[C@@H](O)[C@@H](C)[C@@H](O)C[C@@H]1CC[C@@](C)([C@H]2CC[C@@](C)([C@@H](C)O)O2)O1 [ionomycin] | partial response; also recorded: stimulated nuclear export of GFP-HDAC5 |
| Nc1nc2c(nc(Sc3ccc(Cl)cc3)n2[C@@H]2O[C@@H]3COP(=O)(O)O[C@H]3[C@H]2O)c(=O)[nH]1 [pCPT-GMP] | only ionomycin and PMA stimulated nuclear export |

Tested on: nuclear export of GFP-HDAC5 in NRVMs
Assay: Quantitative HDAC5 nuclear export assay in NRVMs (Cellomics High Content Imaging System)
Type: cell-based, rat
Conditions: NRVMs infected with Ad-GFP-HDAC5; PE 0.1 to 20 μM, 2 hrs; ET-1 50 nM; FBS 10%

| Compound | agonist-triggered nuclear export of HDAC5 in cardiomyocytes |
| --- | --- |
| Endothelin-1 (CSCSSLMDKECVYFCHLDIIW; ends and bridges not checked; cysteine pairing not given here; UniProt P05305 53-73, looked up) [ET-1, hypertrophic agonist purchased from Sigma] | effectively promote nuclear export of HDAC5 |

Same assay, conditions: NRVMs; PE 20 μM, 2 hrs; inhibitor pre-treatment 30 min; KN93, wortmannin, staurosporine 1 mM; U1026, HA1077, Y-27632, DAG Kinase inhibitor II, SB216763, Bis I 10 mM; rapamycin 30 ng/ml; Gö6983 10 μM

| Compound | block of PE-induced nuclear export of HDAC5 |
| --- | --- |
| O=c1c2ccccc2[nH]c(=S)n1CCN1CCC(=C(c2ccc(F)cc2)c2ccc(F)cc2)CC1 [DAGK inhibitor II] | did not significantly affect PE-induced nuclear export of HDAC5 |
| O=S(=O)(c1cccc2cnccc12)N1CCCNCC1 [HA1077] | did not significantly affect PE-induced nuclear export of HDAC5 |
| COc1ccc(S(=O)(=O)N(CCO)c2ccccc2CN(C)C/C=C/c2ccc(Cl)cc2)cc1 [KN93] | did not significantly affect PE-induced nuclear export of HDAC5 |
| Cn1cc(C2=C(c3ccc(Cl)cc3Cl)C(=O)NC2=O)c2ccccc21 [SB216763] | did not significantly affect PE-induced nuclear export of HDAC5 |
| N#CC(=C(/N)Sc1ccccc1N)/C(C#N)=C(/N)Sc1ccccc1N [U1026] | did not significantly affect PE-induced nuclear export of HDAC5 |
| C[C@@H](N)[C@H]1CC[C@H](C(=O)Nc2ccncc2)CC1 [Y-27632] | did not significantly affect PE-induced nuclear export of HDAC5 |
| CN[C@@H]1C[C@H]2O[C@@](C)([C@@H]1OC)n1c3ccccc3c3c4c(c5c6ccccc6n2c5c31)C(=O)NC4 [staurosporine] | effective in blocking PE-dependent export of HDAC5; also recorded: effective in blocking HDAC5 nuclear export |
